Test results published in patent publication US20100068786A1, “METHODS AND COMPOSITIONS FOR REVERSING P-GLYCOPROTEIN MEDICATED DRUG RESISTANCE” (priority 2008, published 2010).

Assays:
P-gp [1] = biological target: T1, P-gp (Mus musculus, UniProt P21447); settings: co-administration in mice of P-gp inhibitor LY335979 and nelfinavir; cited from earlier work
T1 construct: A comparison of P-gp knock-out mice to their wild-type counterparts; host or cells: mouse, in vivo (blood-brain barrier)

P-gp [2] = biological target: T1, P-gp; settings: P-gp knock-out mice vs wild-type; cited from earlier work
[3] = tested on: implanted human glioblastomas; settings: cited from earlier work
MCF-7/DX1 cells = assay: MTT cell viability assay, reversal of taxol resistance; format: cell-based, human; settings: P-gp over-expressing MCF-7/DX1 cell line, FIG. 8
Experimental: The inhibition of P-gp transport was evaluated with the prodrug dimers and monomer controls in the human carcinoma MCF7-DX1 cell line.
The P-gp-mediated multidrug resistance phenotype of cancer cells is characterized by the ability of cells to evade the cytotoxic effects of drugs that are substrates of P-gp and remain viable even at high extracellular drugs concentrations. One such compound is the cytostatic agent taxol, which is also a known P-gp substrate (Horwitz et al., 1993). Cells lines that over-express P-gp, such as the MCF-7/DX1 cell line, display a 3000-fold decrease in susceptibility to taxol (FIG. 8).

MCF-7/DX1 = MCF-7/DX1 vs MCF-7 cells; cited from earlier work

T1 sequence (P21447 whole entry): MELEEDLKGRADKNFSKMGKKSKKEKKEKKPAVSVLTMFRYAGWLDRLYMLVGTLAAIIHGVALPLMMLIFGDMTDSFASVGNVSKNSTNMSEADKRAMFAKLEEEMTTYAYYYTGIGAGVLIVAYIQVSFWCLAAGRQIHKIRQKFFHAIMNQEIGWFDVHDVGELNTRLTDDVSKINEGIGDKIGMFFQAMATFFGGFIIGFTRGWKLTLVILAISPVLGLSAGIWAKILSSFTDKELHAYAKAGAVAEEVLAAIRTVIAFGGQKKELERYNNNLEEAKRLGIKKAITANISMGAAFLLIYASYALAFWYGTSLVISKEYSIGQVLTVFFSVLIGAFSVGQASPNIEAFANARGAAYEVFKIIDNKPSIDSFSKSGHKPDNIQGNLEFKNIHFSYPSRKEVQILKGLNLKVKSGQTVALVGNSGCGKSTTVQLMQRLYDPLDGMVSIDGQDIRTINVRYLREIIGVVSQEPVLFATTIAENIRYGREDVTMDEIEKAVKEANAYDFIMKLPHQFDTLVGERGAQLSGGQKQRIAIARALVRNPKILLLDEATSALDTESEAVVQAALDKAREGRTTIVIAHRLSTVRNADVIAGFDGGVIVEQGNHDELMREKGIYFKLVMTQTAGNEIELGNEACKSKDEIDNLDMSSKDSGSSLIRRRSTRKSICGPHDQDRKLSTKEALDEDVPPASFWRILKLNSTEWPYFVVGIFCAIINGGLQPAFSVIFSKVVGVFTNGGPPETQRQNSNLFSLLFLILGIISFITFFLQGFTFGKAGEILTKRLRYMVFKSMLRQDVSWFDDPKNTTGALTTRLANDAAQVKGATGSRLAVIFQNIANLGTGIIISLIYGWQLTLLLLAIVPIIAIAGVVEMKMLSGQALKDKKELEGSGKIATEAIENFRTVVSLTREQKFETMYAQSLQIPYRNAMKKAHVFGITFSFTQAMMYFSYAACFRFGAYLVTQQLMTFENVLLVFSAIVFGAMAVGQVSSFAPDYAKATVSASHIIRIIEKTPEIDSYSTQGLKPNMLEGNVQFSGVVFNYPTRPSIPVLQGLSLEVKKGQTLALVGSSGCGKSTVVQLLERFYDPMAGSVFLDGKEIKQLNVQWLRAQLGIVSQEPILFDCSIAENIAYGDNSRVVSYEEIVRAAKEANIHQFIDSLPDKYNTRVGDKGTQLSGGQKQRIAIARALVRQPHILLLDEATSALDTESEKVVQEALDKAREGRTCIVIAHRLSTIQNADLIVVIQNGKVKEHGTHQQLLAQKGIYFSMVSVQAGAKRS

What does the source list for `Cc1c(O)cccc1C(=O)N[C@@H](CSc1ccccc1)[C@H](O)CN1C[C@H]2CCCC[C@H]2C[C@H]1C(=O)NC(C)(C)C` [nelfinavir]?
increase in the level of the therapeutic agent in the brain (P-gp [1]): 25 fold; increase in brain penetration (P-gp [2]): 40 fold

Which “increase in brain penetration” value (P-gp [2]) does the source give for `CC(C)(C)NC(=O)[C@@H]1C[C@@H]2CCCC[C@@H]2CN1C[C@@H](O)[C@H](Cc1ccccc1)NC(=O)[C@H](CC(N)=O)NC(=O)c1ccc2ccccc2n1` [saquinavir] here?
Its value is 10 fold.

Which results are given for `CC(=O)O[C@H]1C(=O)[C@@]2(C)[C@H]([C@H](OC(=O)c3ccccc3)[C@]3(O)C[C@H](OC(=O)[C@H](O)[C@@H](NC(=O)c4ccccc4)c4ccccc4)C(C)=C1C3(C)C)[C@]1(OC(C)=O)CO[C@@H]1C[C@@H]2O` [taxol, paclitaxel]?
reduction of growth of implanted human glioblastomas ([3]; co-administration of paclitaxel with valspodar (PSC833) in mice): 90%; effect on tumor size ([3]; treatment with either drug alone, mice): no effect; decrease in susceptibility to taxol (MCF-7/DX1 cells): 3000 fold

With `COc1cccc2c1C(=O)c1c(O)c3c(c(O)c1C2=O)C[C@@](O)(C(=O)CO)C[C@@H]3O[C@H]1C[C@H](N)[C@H](O)[C@H](C)O1` [doxorubicin] as the molecule, how does the resistance to doxorubicin (MCF-7/DX1) read?
Its resistance to doxorubicin is 200 fold.
